Source: publication PMC4648528, “Interplay between Structure and Charge as a Key to Allosteric Modulation of Human 20S Proteasome by the Basic Fragment of HIV-1 Tat Protein” (PLoS ONE, 2015)
Like-named read-outs stand apart in the source and are kept apart here. Square brackets hold non-standard residues; d marks the D form. Ends that are not written are not given here. Peptide text beside a SMILES is read from it. Oic = O=C(O)[C@@H]1C[C@@H]2CCCC[C@@H]2N1; dOic = O=C(O)[C@H]1C[C@H]2CCCC[C@H]2N1; Tic = O=C(O)[C@@H]1Cc2ccccc2CN1; dTic = O=C(O)[C@H]1Cc2ccccc2CN1

Tests used:
human 20S proteasome [1] = test system: T1, human 20S proteasome; test: Peptide degradation test with 20S proteasome (RP-HPLC); format: in vitro ADME
T1 construct: isolated from human erythrocytes (Enzo Life Sciences); purchased Enzo Life Sciences; host or cells: human erythrocytes
Method: Susceptibility of the designed modulators to degradation by the 20S proteasome was examined by reversed-phase high-performance liquid chromatography (S10 Fig). The compounds were dissolved in water or DMSO to 10 mM concentration and then diluted with 25 mM Tris buffer containing 0.25 mM EDTA (pH 8.0) to the final concentration of 1 mM. 2.5 μg of human 20S proteasome (Enzo Life Sciences) was added to the mixture, which then, after adjustment of its final volume to 100 μl, was incubated at 37°C for 3 h. The reaction was stopped by adding 5 μl of 10% aqueous trifluoroacetic acid. Next, 40 μl of the mixture, along with the control not containing the 20S, were injected onto C8 Kromasil column (4,6 x 250 mm, 100 Å, 5 μm). […]
incubation with the proteasome under standard conditions used in our tests. For comparison we also included the degradation profile of Tat1_A4-5,8-9, which was not able to inhibit the proteasome […]
(1 picture or pasted object on this page, not shown here)

human 20S proteasome [2] = target: T1, human 20S proteasome; test: ChT-L peptidase activity of SDS-activated human 20S proteasome (SucLLVY-MCA); format: biochemical
Method: Influence of the designed peptides on catalytic properties of the 20S proteasome was tested using the proteasome at a final concentration of 1.5 nM, isolated from human erythrocytes (Enzo Life Sciences) and activated with 0.01% sodium dodecyl sulfate. Succinyl-Leu-Leu-Val-Tyr-4-methylcoumarin-7-amide (SucLLVY-MCA) was employed as a model fluorogenic substrate to determine the activity of ChT-L peptidase. All assays were performed in the 96-well plate format using a reaction volume of 100 uL. Tests were carried out in 50 mM Tris/HCl, pH 8.0 containing 0.5 mM ethylenediamine tetraacetic acid. Stock solutions of the substrates and the tested peptides were prepared by dissolution of the lyophilized compounds in dimethyl sulfoxide (DMSO). The content of DMSO never exceeded 3% of the final reaction volume. Compounds were tested in the concentration range of 0.05–10 μM. The substrate was added at 100 μM final concentration (1% of the volume). The release of an aminomethyl coumarin (AMC) group was followed by measuring fluorescence emission at 460 nm in 2 min. intervals for up to 60 min. at 37°C (Fluoroskan Ascent). The peptidolytic activity was calculated as nanomoles of the released AMC product per mg of CP per second. The half maximal inhibitory concentration expressed in μM concentration was calculated with SigmaPlot 12.3 where exponential equation estimates based on fitting of two or three logistic parameters were employed.

human 20S proteasome [3] = target: T1, human 20S proteasome; test: Microscale thermophoresis with fluorescently labeled human 20S proteasome; format: binding; settings: for Kd: MST; for EC50: MST Hill fit, concentrations listed in nM, read-out: EC50, fitted value (Hill method)
Text: Microscale thermophoresis detects changes in the mobility of protein molecules in temperature gradients generated by IR laser radiation. The thermophoretic effect is very sensitive to induced by a ligand binding alterations in the charge, size and/or the hydration shell of a studied protein [39]. Quantification of these changes is based on either intrinsic fluorophores such as tryptophan or covalently bound dyes. Titration of the selected peptides/peptidomimetics to a constant concentration of the fluorescently labeled human 20S proteasome allowed us to determine ligand dissociation constants (Kd), and systematically compare their binding affinity.
The human 20S proteasome was labeled using monolith NT^TM Protein Labeling Kit RED-NHS (NanoTemper Technologies), according to the protocol provided by the supplier. During the measurements concentration of the labeled protein was kept constant at 3 nM. […] The binding reactions were carried out in 50 mM Tris/HCl buffer containing 0.5 mM EDTA, pH 8.0 with an addition of sodium dodecyl sulfate at the final concentration of 0.005%. Measurements were performed in standard treated capillaries on a Monolith NT.115 system (NanoTemper Technologies). Capillaries were illuminated at 25°C with 80% LED power for 5 s. […] Fluorescence intensities were measured at 6–8 s and 34–36 s, and fluorescence intensity ratios of hot/cold were used as the assay readout. Kd values were determined using the internal evaluation software.

20S proteasome = settings: cited from earlier work
Text: Intriguingly, we first identified the importance of structural dynamics of this peptide, when we compared the FTIR spectra collected in liquid and films. […] The best studied and shortest 11-residue PR11 may contain a structural turn and is hypothesized to bind at the outer edge of the proteasomal α ring. Another example is octa-arginine, inhibiting the proteasome peptidase activity in vitro with high- ...

[4] = ChT-L activity, average of repetitions, read-out: Calculated IC50, Average
[5] = ChT-L peptidase, 1.5 nM 20S from human erythrocytes activated with 0.01% SDS, 100 μM SucLLVY-MCA, 50 mM Tris/HCl pH 8.0, 0.5 mM EDTA, 37°C, mean (±SD), read-out: IC50
[6] = average of three repetitions, read-out: Kd, Average
[7] = ChT-L activity, Repetition 1, read-out: Calculated IC50

Compound | IC50 (human 20S proteasome [2]; [4]) [µM] | IC50 (human 20S proteasome [2]; [5]) [µM] | also measured
N=C(N)NCCC[C@H](NC(=O)CN)C(=O)N[C@@H](CCCCN)C(=O)N[C@@H](CCCCN)C(=O)N[C@@H](CCCNC(=N)N)C(=O)N[C@@H](CCCNC(=N)N)C(=O)N[C@@H](CCC(N)=O)C(=O)N[C@@H](CCCNC(=N)N)C(=O)N[C@@H](CCCNC(=N)N)C(=O)N[C@@H](CCCNC(=N)N)C(=O)N1CCC[C@H]1C(=O)N[C@@H](CO)C(=O)O [Tat1] | – | – | Degradation by the 20S proteasome (human 20S proteasome [1]; 1 mM peptide, 2.5 μg human 20S proteasome in 100 μl, 25 mM Tris, 0.25 mM EDTA pH 8.0, 37°C, 3 h, RP-HPLC C8, UV 223 nm, against control without 20S): No significant degradation
N=C(N)NCCC[C@H](NC(=O)CN)C(=O)N[C@@H](CCCCN)C(=O)N1Cc2ccccc2C[C@@H]1C(=O)N1[C@H](C(=O)N[C@@H](CCCNC(=N)N)C(=O)N[C@@H](CCC(N)=O)C(=O)N2Cc3ccccc3C[C@H]2C(=O)N2[C@@H](C(=O)N[C@@H](CCCNC(=N)N)C(=O)N3CCC[C@H]3C(=O)N[C@@H](CO)C(=O)O)C[C@H]3CCCC[C@H]32)C[C@@H]2CCCC[C@@H]21 [Tat1_4-5TO,8-9TOD] (H-GRK[dTic][Oic]RQ[Tic][dOic]RPS-OH) | 0.245 | 0.24 | Kd (human 20S proteasome [3]; read-out: Dissociation constants Kd calculated on the basis of the thermophoresis curves, 3 nM labeled 20S, 50 mM Tris/HCl, 0.5 mM EDTA pH 8.0, 0.005% SDS, 25°C, mean (±SD)): 8.38 µM
N=C(N)NCCC[C@H](NC(=O)CN)C(=O)N[C@@H](CCCCN)C(=O)N1Cc2ccccc2C[C@@H]1C(=O)N1[C@H](C(=O)N[C@@H](CCCNC(=N)N)C(=O)N[C@@H](CCC(N)=O)C(=O)N[C@@H](CCCNC(=N)N)C(=O)N[C@@H](CCCNC(=N)N)C(=O)N[C@@H](CCCNC(=N)N)C(=O)N2CCC[C@H]2C(=O)N[C@@H](CO)C(=O)O)C[C@@H]2CCCC[C@@H]21 [Tat1_4-5TO] (HELM PEPTIDE1{G.R.K.[O=C([C@H]1Cc2ccccc2CN1[*:1])[*:2]].[O=C([C@@H]1C[C@@H]2CCCC[C@@H]2N1[*:1])[*:2]].R.Q.R.R.R.P.S}$$$$V2.0) | 0.239 | 0.24 | EC50 (human 20S proteasome [3]; Repetition 1): 8730 ± 0.0212 nM; EC50 (human 20S proteasome [3]; Repetition 2): 9260 ± 0.0182 nM; EC50 (human 20S proteasome [3]; Repetition 3): 8730 ± 0.0265 nM; Kd (human 20S proteasome [3]; [6]): 8.91 µM
N=C(N)NCCC[C@H](NC(=O)CN)C(=O)N[C@@H](CCCCN)C(=O)N[C@@H](CCCCN)C(=O)N[C@@H](CCCNC(=N)N)C(=O)N[C@@H](CCCNC(=N)N)C(=O)N[C@@H](CCC(N)=O)C(=O)N1Cc2ccccc2C[C@H]1C(=O)N1[C@@H](C(=O)N[C@@H](CCCNC(=N)N)C(=O)N2CCC[C@H]2C(=O)N[C@@H](CO)C(=O)O)C[C@H]2CCCC[C@H]21 [Tat1_8-9TOD] | 0.122 | 0.12 | IC50 lower than for counterpart with d-Tic,l-Oic unit (Tat1_8-9TO) (human 20S proteasome [2]; ChT-L activity): about 30%; EC50 (human 20S proteasome [3]; Repetition 1): 8320 ± 0.0423 nM; EC50 (human 20S proteasome [3]; Repetition 2): 7550 ± 0.0388 nM; EC50 (human 20S proteasome [3]; Repetition 3): 8560 ± 0.0538 nM; Kd (human 20S proteasome [3]; [6]): 8.14 µM
N=C(N)NCCC[C@H](NC(=O)CN)C(=O)N[C@@H](CCCCN)C(=O)N[C@@H](CCCCN)C(=O)N[C@@H](CCCNC(=N)N)C(=O)N[C@@H](CCCNC(=N)N)C(=O)N[C@@H](CCC(N)=O)C(=O)N1Cc2ccccc2C[C@@H]1C(=O)N1[C@H](C(=O)N[C@@H](CCCNC(=N)N)C(=O)N2CCC[C@H]2C(=O)N[C@@H](CO)C(=O)O)C[C@@H]2CCCC[C@@H]21 [Tat1_8-9TO] | 0.17 | 0.17 | EC50 (human 20S proteasome [3]; Repetition 1): 8880 ± 0.0559 nM; EC50 (human 20S proteasome [3]; Repetition 2): 10800 ± 0.0559 nM; EC50 (human 20S proteasome [3]; Repetition 3): 11500 ± 0.0559 nM; Kd (human 20S proteasome [3]; [6]): 10.4 µM
GAAARRQRRRPS [Tat1_A2-4] | – | 0.45 | Increase of IC50 relative to Tat1 (human 20S proteasome [2]; ChT-L activity of SDS activated 20S proteasome): about two times higher
GRAAAAQRRRPS [Tat1_A3-6] | 4.24 | 4.24 | –
GRAAARQRRRPS [Tat1_A3-5] | 1.57 | 1.57 | –
GRAARRQRRRPS [Tat1_A3-4] | 0.245 | 0.24 | –
GRKAAAQRRRPS [Tat1_A4-6] | 1.72 | 1.72 | EC50 (human 20S proteasome [3]; Repetition 1): 12800 ± 0.155 nM; EC50 (human 20S proteasome [3]; Repetition 2): 10600 ± 0.0436 nM; EC50 (human 20S proteasome [3]; Repetition 3): 12000 ± 0.084 nM; Kd (human 20S proteasome [3]; Repetition2, read-out: Kd): 10.6 µM; Kd (human 20S proteasome [3]; [6]): 12.1 µM
GRKAARQAARPS [Tat1_A4-5,8–9] | – | 4.66 | Degradation by the 20S proteasome (human 20S proteasome [1]; pH 8): partially degraded by the proteasome; IC50 (human 20S proteasome [2]; [7]): 4.89 µM; IC50 (human 20S proteasome [2]; ChT-L activity, Repetition 2, read-out: Calculated IC50): 3.47 µM; IC50 (human 20S proteasome [2]; ChT-L activity, Repetition 3, read-out: Calculated IC50): 4.43 µM
GRKAARQRRRPS [Tat1_A4-5] | 0.264 | 0.26 | –
GRKKAAARRRPS [Tat1_A5-7] | 0.315 | 0.31 | –
GRKKAAQRRRPS [Tat1_A5-6] | 0.321 | 0.32 | –
GRKKARAAARPS [Tat1_A5,7–9] | 1.53 | 1.53 | –
GRKKRAAARRPS [Tat1_A6-8] | 0.342 | 0.34 | –
GRKKRRAAAAPS [Tat1_A7-10] | 2.79 | 2.79 | –
GRKKRRAAARPS [Tat1_A7-9] | 0.281 | 0.28 | –
GRKKRRQAAAPS [Tat1_A8-10] | 2.52 | 2.52 | IC50 (human 20S proteasome [2]; [7]): 1.99 µM; EC50 (human 20S proteasome [3]; Repetition 1): 13800 ± 0.227 nM; EC50 (human 20S proteasome [3]; Repetition 2): 12800 ± 0.251 nM; EC50 (human 20S proteasome [3]; Repetition 3): 13800 ± 0.218 nM; Kd (human 20S proteasome [3]; [6]): 13.5 µM
octa-arginine | – | – | IC50, proteasome peptidase activity in vitro (20S proteasome): high-nanomolar
